A short description of data set [1]: Circular dichroism secondary structure analysis. Type of data set: physicochemical. The settings on record: CD. As for the experimental part:
Secondary structure analyses of Djeya1 peptides were performed on a Jasco J-815 CD spectrometer (Jasco Ltd., Heckmondwike, UK). Peptides (0.01 mg mL^−^1) were dissolved in either 1 × phosphate buffered saline (PBS) at pH 7.4 or in a 2,2,2-tetrafluoroethanol (TFE) and 1 × PBS mixture (50.0% v/v). All buffers were prepared using ultra-pure water (resistivity 18 MΩ cm), PBS and TFE (Scientific Laboratory Supplies Ltd., Nottingham, UK). CD experiments were also performed at peptide:lipid ratios of 1:100, whilst 1,2-dimyristoyl-sn-glycero-3-phosphatidylcholine (DMPC) and 1,2-dimyristoyl-sn-glycero-3-phosphatidylserine (DMPS) (5 mg mL^−^1) (Avanti Polar Lipids, Alabaster, AL, USA) were dissolved separately in chloroform (HPLC grade, VWR International Ltd Lutterworth, UK) and dried under N2 gas. The lipid film was rehydrated using 1 × PBS, pH 7.5 for 1 h or until the solution was no longer turbid. The solution then underwent 5 cycles of freeze thaw before the lipid/peptide samples were prepared by the addition of peptide stock solution (final concentration 0.01 mg mL^−^1). Far UV CD spectra (180 nm to 260 nm) were recorded at 20 °C using 0.5 nm intervals, a bandwidth of 1 nm, a scan speed of 50 nm min^−1 and a 10 mm path-length cell. Ten accumulations were selected to average a single spectrum. Samples without peptide were prepared for background spectral subtraction. Data, baseline-subtracted and averaged CD, were analyzed using the Dichroweb server CDSSTR and SELCON3 reference dataset 3 [23, 24, 25]. To generate percentage structure averages, these analyses were repeated four times.
For orientation: CD spectra are sensitive to the conformation of chiral molecules.

Data set [2] concerns decapitated S. mediterranea. Put plainly: Anterior pole regeneration and eye development assay. Type of data set: in vivo, Schmidtea mediterranea. The settings on record: for influence upon planarian head regeneration: 25 μM exogenous application to decapitated S. mediterranea, monitored over 8 days. As for the experimental part: Adult planaria, 4–6 mm in length, and selected for experimentation were starved 5 days prior to amputation. Transverse amputation of planarian heads, post-auricle and pre-pharynx, induced blastema formation in the trunk section, leading to eye regeneration and head remodeling.
Post amputation, planaria were immediately treated with exogenously added Djeya1 analogues in 35 mm diameter × 10 mm depth culture dishes (VWR International Ltd., Lutterworth, UK) to a final volume of 4 mL PAM and maintained at 20 °C. PAM, containing Djeya1 analogues, was replenished 4 days post amputation. […]

For the next data set, the system named is U373MG cells. Put plainly: Quantitative peptide uptake, U373MG. Format: cell-based. To be noted: TAMRA-labelled peptides 1, 2.5, 5 μM, 1 h, 37 °C, lysate fluorescence 544/590 nm, two experiments in triplicate. As for the experimental part:
(§1) U373MG and U251 cells were maintained as above and then transferred to 6-well plates and grown to 80% confluence. Cells were washed and maintained in phenol red-free DMEM and subsequently treated with TAMRA-conjugated Djeya1 analogues at final concentrations of 1 μM, 2.5 μM, and 5 μM for 1 h in culture conditions as above. Cells were washed four times, detached with 300 μL of 1% (w/v) trypsin (without phenol red) at 37 °C, collected by centrifugation, and lysed in 300 μL 0.1 M NaOH for 2 h on ice. A total of 250 μL of each sample cell lysate was transferred to a black 96-well plate and analysed using a Thermo Fischer Scientific (Loughborough, UK) Fluoroskan Ascent FL fluorescence spectrophotometer (λAbs 544 nm/λEm 590 nm).

A further data set relates to U251 cells. Put plainly: Quantitative peptide uptake, U251. Type of data set: cell-based. To be noted: U251, TAMRA-labelled peptides 1, 2.5, 5 μM, 1 h, 37 °C, lysate fluorescence 544/590 nm, two experiments in triplicate. How it is done:
as §1

[3] abbreviates: 50% (v/v) TFE/PBS pH 7.4, peptide 0.01 mg mL-1, 20 °C.
Setting [4] is: 50% (v/v) TFE/PBS pH 7.4, peptide 0.01 mg mL-1, 20 °C, Dichroweb, analyses repeated four times.
The mark [5] stands for this setting: DMPC vesicles, lipid:peptide 100 to 1, PBS, peptide 0.01 mg mL-1, 20 °C.
[6] abbreviates: DMPS vesicles, lipid:peptide 100 to 1, PBS, peptide 0.01 mg mL-1, 20 °C.
[7] abbreviates: PBS pH 7.4, peptide 0.01 mg mL-1, 20 °C, Dichroweb CDSSTR/SELCON3, analyses repeated four times.
Setting [8] is: PBS pH 7.4, peptide 0.01 mg mL-1, 20 °C, Dichroweb, analyses repeated four times.

[ ]: non-standard residue; d: D form. Aib = CC(C)(N)C(=O)O

We go through three substances from paper PMC10458859, “Stem Cell Bioengineering with Bioportides: Inhibition of Planarian Head Regeneration with Peptide Mimetics of Eyes Absent Proteins” (Pharmaceutics, 2023).

“H-RKLAFRYRRIKELYN[Aib]YR-NH2 (SMILES CC[C@H](C)[C@H](NC(=O)[C@H](CCCNC(=N)N)NC(=O)[C@H](CCCNC(=N)N)NC(=O)[C@H](Cc1ccc(O)cc1)NC(=O)[C@H](CCCNC(=N)N)NC(=O)[C@H](Cc1ccccc1)NC(=O)[C@H](C)NC(=O)[C@H](CC(C)C)NC(=O)[C@H](CCCCN)NC(=O)[C@@H](N)CCCNC(=N)N)C(=O)N[C@@H](CCCCN)C(=O)N[C@@H](CCC(=O)O)C(=O)N[C@@H](CC(C)C)C(=O)N[C@@H](Cc1ccc(O)cc1)C(=O)N[C@@H](CC(N)=O)C(=O)NC(C)(C)C(=O)N[C@@H](Cc1ccc(O)cc1)C(=O)N[C@@H](CCCNC(=N)N)C(N)=O) [[Aib^16]Djeya1, Aib-substituted Djeya1 analogue, position 16; bioportide]”: the Unordered in data set [1] (setting [3]) stood at 19.50 ± 0.71%; in data set [1] (setting [5]), 22.00 ± 0.71%; in data set [1] (setting [6]), 22.00 ± 0.71%; in data set [1] (setting [8]) it was 21.00 ± 1.00%. Besides, the ß-Strand in data set [1] (setting [3]) is listed as 27.50 ± 0.71%; in data set [1] (setting [5]), 30.00 ± 0.71%; in data set [1] (setting [6]) it was 30.00 ± 0.71%; in data set [1] (setting [8]) it was 31.67 ± 2.87%. Besides, the ß-Turns is listed as 7.00 ± 0.00% in data set [1] (setting [3]), 7.00 ± 0.71% in data set [1] (setting [5]), 8.00 ± 0.71% in data set [1] (setting [6]) and 7.33 ± 0.58% in data set [1] (setting [8]). For the same substance, the α-helix in data set [1] (setting [4]) was 46.00 ± 1.41%; in data set [1] (setting [5]), 42.00 ± 0.71%; in data set [1] (setting [6]), 42.00 ± 0.00%; in data set [1] (setting [7]), 39.67 ± 4.04%. Besides, in data set [1] (DMPC and DMPS vesicles, lipid:peptide 100 to 1), the “difference in percentage α-helicity in the presence of lipid membranes” value is reported as “No difference”. For the same substance, the “influence upon planarian head regeneration” value in data set [2] is reported as “delay head regeneration”. In addition, the response to light entry in data set [2] (25 μM in PAM after amputation, re-treated day 4, day 8) was “unresponsive to light”. Moreover, the “regeneration of the anterior pole, including the eye spots” value in data set [2] (25 μM in PAM immediately after transverse amputation, re-treated day 4, observed day 8, compared to PAM alone) was “absent”. In addition, in data set [2] (25 μM treatment, 30 days post amputation, in PAM, n = 9), the “animals that achieved full regeneration” value is recorded as “all”. Further, the “animals that had commenced the development of photoreceptors within the unpigmented blastema” value in data set [2] (25 μM, day 9 post amputation, n = 9) amounted to 67%. The “rank order of uptake efficacy” value is “[Aib^16]Djeya1 = [Aib^10]Djeya1 > [Aib^13]Djeya1” in the data set on U373MG cells and “[Aib^13]Djeya1 > [Aib^16]Djeya1 > [Aib^10]Djeya1” with U251 cells.

With “H-RKLAFRYRR[Aib]KELYNSYR-NH2 (SMILES CC(C)C[C@H](NC(=O)[C@H](CCCCN)NC(=O)[C@@H](N)CCCNC(=N)N)C(=O)N[C@@H](C)C(=O)N[C@@H](Cc1ccccc1)C(=O)N[C@@H](CCCNC(=N)N)C(=O)N[C@@H](Cc1ccc(O)cc1)C(=O)N[C@@H](CCCNC(=N)N)C(=O)N[C@@H](CCCNC(=N)N)C(=O)NC(C)(C)C(=O)N[C@@H](CCCCN)C(=O)N[C@@H](CCC(=O)O)C(=O)N[C@@H](CC(C)C)C(=O)N[C@@H](Cc1ccc(O)cc1)C(=O)N[C@@H](CC(N)=O)C(=O)N[C@@H](CO)C(=O)N[C@@H](Cc1ccc(O)cc1)C(=O)N[C@@H](CCCNC(=N)N)C(N)=O) [[Aib^10]Djeya1, Aib-substituted Djeya1 analogue, position 10]”, the Unordered worked out at 20.00 ± 0.00% in data set [1] (setting [3]), 22.00 ± 1.41% in data set [1] (setting [5]), 16.00 ± 0.00% in data set [1] (setting [6]) and 20.67 ± 0.58% in data set [1] (setting [8]). Also, the ß-Strand in data set [1] (setting [3]) came out at 21.00 ± 0.02%; in data set [1] (setting [6]), 15.00 ± 0.00%; in data set [1] (setting [8]), 31.33 ± 0.58%. The ß-Turns in data set [1] (setting [3]) came out at 7.50 ± 0.71%; in data set [1] (setting [5]), 7.00 ± 1.41%; in data set [1] (setting [6]), 5.00 ± 0.00%; in data set [1] (setting [8]), 7.00 ± 0.00%. The α-helix was 51.50 ± 0.07% in data set [1] (setting [4]), 45.00 ± 1.58% in data set [1] (setting [5]), 63.00 ± 2.82% in data set [1] (setting [6]) and 41.33 ± 1.15% in data set [1] (setting [7]). Also, the “influence upon planarian head regeneration” value in data set [2] was “inactive”. The “rank order of uptake efficacy” value in the data set with U373MG cells was “[Aib^16]Djeya1 = [Aib^10]Djeya1 > [Aib^13]Djeya1”; in the data set on U251 cells, “[Aib^13]Djeya1 > [Aib^16]Djeya1 > [Aib^10]Djeya1”.

“H-RKLAFRYRRIKELYNSYR-NH2 [Djeya1, octadecapeptide CPP mimicking the α5 helix of the Eya domain of eyes absent proteins]”: the Unordered in data set [1] (setting [3]) was 20.00 ± 1.41%; in data set [1] (setting [5]), 22.00 ± 0.00%; in data set [1] (setting [6]), 20.00 ± 0.00%; in data set [1] (setting [8]), 20.00 ± 1.73%. The ß-Strand in data set [1] (setting [3]) was determined as 27.55 ± 3.53%; in data set [1] (setting [6]), 26.00 ± 1.28%; in data set [1] (setting [8]), 30.33 ± 0.58%. Also, the ß-Turns in data set [1] (setting [3]) amounted to 7.00 ± 0.00%; in data set [1] (setting [5]), 8.00 ± 0.0%; in data set [1] (setting [6]), 8.00 ± 0.00%; in data set [1] (setting [8]), 6.67 ± 0.58%. The α-helix in data set [1] (setting [4]) stood at 45.50 ± 4.94%; in data set [1] (setting [5]), 44.00 ± 1.53%; in data set [1] (setting [6]), 47.00 ± 1.24%; in data set [1] (setting [7]), 43.00 ± 1.73%. Besides, in data set [2], the “influence upon planarian head regeneration” value was “inactive”.
